Measured values taken from PubChem BioAssay AID2060496 (Molecular Pharmacology Branch, DTP, NCI, 2025).
“And” between values parts separate entries of the source, which are not always exact repeats. Equal values may be shown once.

Test system: 276233-004-R-J1-PDC complex spheroid viability
Experiment: Anticancer human tumor 276233-004-R-J1-PDC patient-derived colon adenocarcinoma cell line growth inhibition [GQUAD]
Settings: for viability, T/C: stronger effect = lower value
Excerpt: DNA G-quadruplex Stabilizer Agents in Combinations in Complex Spheroids
A high-throughput screen of multi-cell type tumor spheroids was designed to identify active combinations of DNA G-quadruplex stabilizer agents and targeted small molecules. Complex spheroids include a stromal component modeled by human endothelial cells (HUVEC) and fibroblasts modeled by human mesenchymal stem cells (MSCs). The concentration ranges selected for each drug and investigational agent were based upon clinically achievable concentrations if the clinical Cmax of the agent was known.
Compounds. The drugs and investigational agents: pidnarulex (CX-5461; NSC782164), APTO-253 (NSC789042), BRACO-19 (NSC847499), peposertib (NSC802822), ceralasertib (NSC780249), elimusertib (NSC800525), camonsertib (NSC841442), AZD-1390 (NSC803789), olaparib (NSC753686), talazoparib (NSC767125), ART-558 (NSC835418), sotorasib (NSC818433), MRTX-1133 (NSC836407), SN-38 (NSC673596), topotecan (NSC609699), etoposide (NSC141540), doxorubicin (NSC123127), gemcitabine (NSC613327), 5-fluorouracil (NSC19893), paclitaxel (NSC125973), vemurafenib (NSC761431), panobinostat (NSC761190), R-306465 (JNJ-16241199; NSC773264), adavosertib (NSC754352), TP-3654 (NSC805149), carboplatin (NSC241240), KSQ-4279 (NSC840948), and staurosporine (NSC755774) were obtained from the National Cancer Institute (NCI) Developmental Therapeutics Program Chemical Repository (34). The FDA-approved anticancer drug set is available from the NCI Developmental Therapeutics Program. […] The stock solutions were prepared in dimethyl sulfoxide (DMSO, Sigma-Aldrich, St. Louis, MO, cat. D2650) at 800-fold the tested concentration and stored at -70 degrees C prior to their use. All drugs and investigational agents were tested over a range starting from a high concentration at or near the clinical Cmax and decreasing in half-log increments. If the clinical Cmax for an agent had not been determined, the highest concentration tested was 10 microM.
2.3 Cell Culture. All cells were maintained in an incubator at 37 degrees C and 5% CO2 with 95% humidity. The PDC lines were cultured according to standard operating procedures established by the NCI PDMR. All PDCs were thawed and cultured in Matrigel-coated flasks prepared with a working solution of 1X Ham's F-12 nutrient mix, without supplementation (Invitrogen, cat. 11765054), 100 U/mL penicillin-streptomycin (Invitrogen, cat. 15140122), and 2.5% Matrigel (Corning Inc., cat. 354248) for the first three passages. The 857933-349-R-J2-PDC line was cultured in 6C/Colon 1B media, which includes advanced DMEM/F-12 (Thermo Fisher Scientific, cat. 12634028), 10 mM HEPES (Thermo Fisher Scientific, cat. 15630080), 1X GlutaMAX supplement (Thermo Fisher Scientific, cat. 35050061), 0.1 mg/mL primocin (InvivoGen, cat. ant-pm-2), 10% defined fetal bovine serum, heat inactivated (HyClone Laboratories Inc., cat. SH30070.03HI), 50% L-WRN conditioned media (ATCC, cat. CRL-3276), 1.25 mM N-Acetyl-L-cysteine (Sigma-Aldrich, cat. A9165), 10 mM nicotinamide (Sigma-Aldrich, cat. N0636), 1X B-27 supplement (Thermo Fisher Scientific, cat. 17504044), 1X N-2 supplement (Thermo Fisher Scientific, cat. 17502048), 10 microM Y-27632 dihydrochloride (Tocris Bioscience, cat. 1254), and 50 ng/mL human EGF recombinant protein (Thermo Fisher Scientific, cat. PHG0311). The 485176-168-R4-J1-PDC line was cultured in Panc media, which includes all 6C/Colon 1B media components plus 100 ng/mL human FGF-10 (Thermo Fisher Scientific, cat. 100-26), 500 nM SB-431542 (Selleckchem, cat. S1067), and gastrin (Tocris, cat. 3006).
[…]

[1] = compound alone, run of 02/20/2024
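Also: spheroids exposed to drugs for seven days.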
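For viability, T/C in this document: 100% = DMSO vehicle control viability.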

In the case of `COc1cc(C2c3cc4c(cc3C(OC3OC5COC(C)OC5C(O)C3O)C3COC(=O)C23)OCO4)cc(OC)c1O` (stereo unspecified), the viability, T/C (compound 0.0316 µM) is reported as 94.5% and 86% and 83.5%, the viability, T/C (compound 0.1 µM) is reported as 85% and 92% and 84.5% and the viability, T/C (compound 0.316 µM) is reported as 88% and 89.3% and 89.8%. For the same molecule, the viability, T/C (compound 1 µM) was 81.9% and 83.7% and 91%, the viability, T/C (compound 3.16 µM) was 99% and 101% and 88.6% and the viability, T/C (compound 10 µM) was 92.4% and 79.9% and 85%. The IC50 (curve of compound) was > 10000 nM.
For `COc1ccc([C@@H](O)c2cc(-c3ncnc4cc(N5CCOCC5)ccc34)c(F)cc2Cl)nn1`, the viability, T/C (compound 0.0316 µM) was 91.6% and 98.8% and 86%, the viability, T/C (compound 0.1 µM) was 81% and 98.4% and 55% and the viability, T/C (compound 0.316 µM) was 95.6% and 97.8% and 80.1%. For the same molecule, the viability, T/C (compound 1 µM) was 75.1% and 80.2% and 68.1%, the viability, T/C (compound 3.16 µM) was 75.5% and 68% and 68.3% and the viability, T/C (compound 10 µM) was 61.6% and 65.6% and 59.3%. The IC50 (curve of compound) was > 10000 nM.
In the case of `COc1cccc2c1C(=O)c1c(O)c3c(c(O)c1C2=O)CC(O)(C(=O)CO)CC3OC1CC(N)C(O)C(C)O1` (stereo unspecified), the viability, T/C (compound 0.0316 µM) is reported as 90.2% and 99.5% and 87%, the viability, T/C (compound 0.1 µM) is reported as 90.8% and 78.6% and 69.9% and the viability, T/C (compound 0.316 µM) is reported as 84.7% and 99.6% and 86.4%. For the same molecule, the viability, T/C (compound 1 µM) was 67.4% and 66.3% and 80.7%, the viability, T/C (compound 3.16 µM) was 49.4% and 58.4% and 58.3% and the viability, T/C (compound 10 µM) was 44.2% and 70.7% and 49.6%. For the same molecule, the IC50 (curve of compound) was 3040 nM and > 10000 nM and 9440 nM.
`COc1ncnc(C2CC2)c1-c1ncc2cnn(Cc3ccc(-c4nc(C(F)(F)F)cn4C(C)C)cc3)c2n1` was tested, and the viability, T/C (compound 0.0316 µM) was 86% and 85.2% and 92%, the viability, T/C (compound 0.1 µM) was 69% and 77.1% and 72.8% and the viability, T/C (compound 0.316 µM) was 84.5% and 105% and 85.5%. For the same molecule, the viability, T/C (compound 1 µM) was 82% and 82.4% and 85.8%, the viability, T/C (compound 3.16 µM) was 94.6% and 92.9% and 82.1% and the viability, T/C (compound 10 µM) was 98% and 75.9% and 97.7%. For the same molecule, the IC50 (curve of compound) was > 10000 nM.
`Cc1[nH]c2ccc(F)cc2c1-c1nc2c3cccnc3c3ncccc3c2[nH]1` was tested, and the viability, T/C (compound 0.316 µM) was 80.8% [middle of 12 runs], the viability, T/C (compound 1 µM) was 73.4% [middle of 12 runs] and the viability, T/C (compound 10 µM) was 44.4% [middle of 12 runs]. The IC50 [1] was 2.51 µM [middle of 8 runs] and the IC50 (compound alone, run of 02/26/2024) was 1.35 µM [middle of 4 runs].
In the case of `Cc1[nH]c2ccccc2c1CCNCc1ccc(/C=C/C(=O)NO)cc1`, the viability, T/C (compound 0.000999 µM) is reported as 86.2% and 100% and 95.1%, the viability, T/C (compound 0.00316 µM) is reported as 71% and 96.2% and 83.8% and the viability, T/C (compound 0.00999 µM) is reported as 96.1% and 81.2% and 98.1%. The viability, T/C (compound 0.0316 µM) was 80.3% and 84% and 82.8%, the viability, T/C (compound 0.0999 µM) was 80.9% and 60.8% and 86.1% and the viability, T/C (compound 0.316 µM) was 19.3% and 31.7% and 41.9%. The IC50 (curve of compound) was 178 nM and 155 nM and 257 nM.
`Cc1cccc(N(C)C(=O)C2C(O)CCN2c2nc(C)cc(C(F)(F)F)c2C#N)c1` (stereo unspecified) was tested, and the viability, T/C (compound 0.0316 µM) was 92.6% and 89.1% and 85.7%, the viability, T/C (compound 0.1 µM) was 69.5% and 106% and 83.8% and the viability, T/C (compound 0.316 µM) was 74.5% and 101% and 74.6%. The viability, T/C (compound 1 µM) was 94% and 109% and 85.7%, the viability, T/C (compound 3.16 µM) was 99.6% and 74.3% and 84.3% and the viability, T/C (compound 10 µM) was 111% and 91.5% and 99.2%. For the same molecule, the IC50 (curve of compound) was > 10000 nM.
With `Cc1cnc(CNC(=O)c2c(=O)c3ccc(N4CCCN(C)CC4)nc3n3c2sc2ccccc23)cn1` the viability, T/C (compound 1 µM) was 85.5% [middle of 12 runs], the viability, T/C (compound 3.16 µM) was 74.2% [middle of 12 runs] and the viability, T/C (compound 10 µM) was 68.8% [middle of 12 runs]. For the same molecule, the IC50 [1] was > 10000 nM.
`Cn1ncnc1[C@H]1c2n[nH]c(=O)c3cc(F)cc(c23)N[C@@H]1c1ccc(F)cc1` was tested, and the viability, T/C (compound 0.000999 µM) was 108% and 94.2% and 85.9%, the viability, T/C (compound 0.00316 µM) was 84.1% and 111% and 82.8% and the viability, T/C (compound 0.00999 µM) was 97.9% and 83.5% and 81.7%. For the same molecule, the viability, T/C (compound 0.0316 µM) was 80% and 83.1% and 87.4%, the viability, T/C (compound 0.0999 µM) was 108% and 84.9% and 87.8% and the viability, T/C (compound 0.316 µM) was 102% and 89.6% and 80.9%. For the same molecule, the IC50 (curve of compound) was > 316 nM.
With `Nc1ccn(C2OC(CO)C(O)C2(F)F)c(=O)n1` (stereo unspecified) the viability, T/C (compound 0.0316 µM) was 86.2% and 88.9% and 100%, the viability, T/C (compound 0.1 µM) was 76.2% and 97% and 92.5% and the viability, T/C (compound 0.316 µM) was 76.6% and 97.1% and 85.7%. The viability, T/C (compound 1 µM) was 69% and 83.3% and 72.7%, the viability, T/C (compound 3.16 µM) was 83.3% and 79% and 97.7% and the viability, T/C (compound 10 µM) was 71.6% and 68.4% and 75.5%. For the same molecule, the IC50 (curve of compound) was > 10000 nM.
With `O=C(NO)c1cnc(N2CCN(S(=O)(=O)c3ccc4ccccc4c3)CC2)nc1` the viability, T/C (compound 0.0316 µM) was 87% and 88.3% and 112%, the viability, T/C (compound 0.1 µM) was 108% and 125% and 89% and the viability, T/C (compound 0.316 µM) was 68.1% and 77.6% and 63.9%. For the same molecule, the viability, T/C (compound 1 µM) was 1.97% and 0.86% and 8.3%, the viability, T/C (compound 3.16 µM) was 0.67% and 0.79% and 4.97% and the viability, T/C (compound 10 µM) was 1.35% and 1.12% and 3.62%. The IC50 (curve of compound) was 432 nM and 479 nM and 397 nM.
For `O=C(c1cc(Cc2n[nH]c(=O)c3ccccc23)ccc1F)N1CCN(C(=O)C2CC2)CC1`, the viability, T/C (compound 0.0316 µM) was 98.7% and 82% and 96.7%, the viability, T/C (compound 0.1 µM) was 74.7% and 85.1% and 87.7% and the viability, T/C (compound 0.316 µM) was 99.8% and 90.6% and 79%. The viability, T/C (compound 1 µM) was 93.7% and 103% and 84.8%, the viability, T/C (compound 3.16 µM) was 82.7% and 91.9% and 88% and the viability, T/C (compound 10 µM) was 94.1% and 79.9% and 97.9%. For the same molecule, the IC50 (curve of compound) was > 10000 nM.
With `O=c1[nH]cc(F)c(=O)[nH]1` the viability, T/C (compound 0.0316 µM) was 98.2% and 108% and 102%, the viability, T/C (compound 0.1 µM) was 71.6% and 81.3% and 94.7% and the viability, T/C (compound 0.316 µM) was 89.2% and 90.9% and 103%. The viability, T/C (compound 1 µM) was 88.4% and 88.3% and 106%, the viability, T/C (compound 3.16 µM) was 84.1% and 90.3% and 83.7% and the viability, T/C (compound 10 µM) was 101% and 97.9% and 113%. For the same molecule, the IC50 (curve of compound) was > 10000 nM.
